pIC50: −log10 of the molar value.

Consider 27 compounds from patent US8329904B2, “Azacyclic derivatives” (Hoffmann-La Roche Inc., priority 2009, dated 2012).

The target of the assay is T1, human HSL (Homo sapiens, UniProt Q05469).
T1 construct: overlapping PCR to generate a full length human HSL ORF with a 3′-His6 tag; His6 (C); made in house; host or cells: High 5 insect cells (baculovirus, pFast-BAC)
T1 sequence (Q05469 1-1076): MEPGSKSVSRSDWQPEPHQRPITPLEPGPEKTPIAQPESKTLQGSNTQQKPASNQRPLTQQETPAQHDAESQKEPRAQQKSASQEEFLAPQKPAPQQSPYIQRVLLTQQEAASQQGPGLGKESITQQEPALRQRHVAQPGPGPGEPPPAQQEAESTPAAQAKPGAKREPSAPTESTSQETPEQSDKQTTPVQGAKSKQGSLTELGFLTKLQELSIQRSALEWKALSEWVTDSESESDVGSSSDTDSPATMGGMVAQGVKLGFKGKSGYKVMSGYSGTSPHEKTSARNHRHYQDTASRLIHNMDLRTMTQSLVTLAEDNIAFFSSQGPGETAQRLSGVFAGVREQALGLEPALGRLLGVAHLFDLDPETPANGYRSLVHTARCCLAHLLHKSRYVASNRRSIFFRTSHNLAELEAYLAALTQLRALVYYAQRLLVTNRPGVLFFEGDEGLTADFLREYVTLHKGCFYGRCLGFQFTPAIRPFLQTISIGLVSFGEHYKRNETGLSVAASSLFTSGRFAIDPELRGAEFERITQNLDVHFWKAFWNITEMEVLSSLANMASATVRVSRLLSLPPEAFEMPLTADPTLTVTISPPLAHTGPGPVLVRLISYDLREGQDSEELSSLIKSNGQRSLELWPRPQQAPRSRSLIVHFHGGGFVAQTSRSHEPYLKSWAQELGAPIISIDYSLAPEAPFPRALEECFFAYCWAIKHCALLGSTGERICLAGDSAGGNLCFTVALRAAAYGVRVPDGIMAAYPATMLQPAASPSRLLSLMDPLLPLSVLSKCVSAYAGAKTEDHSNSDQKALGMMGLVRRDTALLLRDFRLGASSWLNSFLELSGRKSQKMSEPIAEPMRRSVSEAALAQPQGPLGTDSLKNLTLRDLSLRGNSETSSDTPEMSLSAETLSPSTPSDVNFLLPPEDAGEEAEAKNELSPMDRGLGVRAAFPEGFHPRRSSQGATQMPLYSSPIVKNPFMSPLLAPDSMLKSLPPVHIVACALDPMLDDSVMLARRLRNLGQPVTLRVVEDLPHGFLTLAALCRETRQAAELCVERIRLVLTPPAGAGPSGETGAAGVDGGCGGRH
Nature of the assay: Human Hormone-Sensitive Lipase (HSL) Enzyme Inhibition Assay. Conditions: colorimetric assay, 2,3-dimercapto-1-propanol tributyrate (DMPT) substrate, 37° C. for 20 minutes, absorbance at 405 nm; read-out: HSL hum IC50. The assay is classed as biochemical. The method in brief:
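Colorimetric thioester hydrolysis: compounds in DMSO series mixed with DMPT (1.5 mM) in MOPS pH 7.2 with BSA, then baculovirus-expressed His6-tagged full-length human HSL added, 37° C, 20 min. DTNB plus detergents added, 15 min room temperature, absorbance at 405 nm.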
Broadly, the pIC50 is −log10 of the IC50, conventionally taken in molar units. For `O=C1N(c2ccc(C(O)C(F)(F)F)cc2)CCC12CCN(S(=O)(=O)c1ccccc1C(F)(F)F)CC2` (stereo not drawn) [Example 166, 2-(4-(2,2,2-trifluoro-1-hydroxyethyl)phenyl)-8-(2-(trifluoromethyl)phenylsulfonyl)-2,8-diazaspiro[4.5]decan-1-one], the pIC50 is 7.70.

On to `CC(C)CS(=O)(=O)N1CCC2(CCN(c3ccc(C(O)C(F)(F)F)cc3)C2=O)CC1` (stereo not drawn) [Example 167, 8-(isobutylsulfonyl)-2-(4-(2,2,2-trifluoro-1-hydroxyethyl)phenyl)-2,8-diazaspiro[4.5]decan-1-one], for which the pIC50 was 7.15.

With `CC(C)CS(=O)(=O)N1CCC2(CCN(c3ccc(C(C)(O)C(F)(F)F)cc3)C2=O)CC1` (stereo not drawn) [Example 168, 8-(isobutylsulfonyl)-2-(4-(1,1,1-trifluoro-2-hydroxypropan-2-yl)phenyl)-2,8-diazaspiro[4.5]decan-1-one], the pIC50 was 6.89.

As to `CC(O)(c1ccc(N2CCC3(CCN(S(=O)(=O)c4ccccc4C(F)(F)F)CC3)C2=O)cc1)C(F)(F)F` (stereo not drawn) [Example 169, 2-(4-(1,1,1-trifluoro-2-hydroxypropan-2-yl)phenyl)-8-(2-(trifluoromethyl)phenylsulfonyl)-2,8-diazaspiro[4.5]decan-1-one], the negative logarithm of the IC50 (pIC50) is 7.52.

`O=C1N(c2ccc(C(O)C(F)(F)F)cc2)CCC12CCN(S(=O)(=O)C1CC1)CC2` (stereo not drawn) [Example 170, 8-(Cyclopropylsulfonyl)-2-(4-(2,2,2-trifluoro-1-hydroxyethyl)phenyl)-2,8-diazaspiro[4.5]decan-1-one]: the negative-log IC50 (pIC50) is 6.49.

Turning to `CC(O)(c1ccc(N2CCC3(CCN(S(=O)(=O)C4CC4)CC3)C2=O)cc1)C(F)(F)F` (stereo not drawn) [Example 171, 8-(Cyclopropylsulfonyl)-2-(4-(1,1,1-trifluoro-2-hydroxypropan-2-yl)phenyl)-2,8-diazaspiro[4.5]decan-1-one], the pIC50 was 6.26.

Regarding `CCS(=O)(=O)c1ccc(N2CCC3(CCN(S(=O)(=O)CC(C)(C)C)CC3)C2=O)cc1` [Example 172, 8-(2,2-Dimethyl-propane-1-sulfonyl)-2-(4-ethanesulfonyl-phenyl)-2,8-diaza-spiro[4.5]decan-1-one], the pIC50 is 6.11.

`O=C1N(c2ccc(C(O)CF)cc2)CCC12CCN(S(=O)(=O)c1ccccc1C(F)(F)F)CC2` (stereo not drawn) [Example 173, 2-(4-(2-fluoro-1-hydroxyethyl)phenyl)-8-(2-(trifluoromethyl)phenylsulfonyl)-2,8-diazaspiro[4.5]decan-1-one]: the negative-log IC50 (pIC50) was 6.85.

As for `CC(C)(O)c1ccc(N2CCC3(CCN(S(=O)(=O)c4ccccc4C(F)(F)F)CC3)C2=O)cc1` [Example 174, 2-[4-(1-Hydroxy-1-methyl-ethyl)-phenyl]-8-(2-trifluoromethyl-benzenesulfonyl)-2,8-diaza-spiro[4.5]decan-1-one], the pIC50 was 7.22.

On to `CC(C)(C)CC(=O)N1CCC2(CC1)CCN(c1ccc(C(O)C(C)(F)F)cc1)C2=O` (stereo not drawn) [Example 175, 2-(4-(2,2-difluoro-1-hydroxypropyl)phenyl)-8-(3,3-dimethylbutanoyl)-2,8-diazaspiro[4.5]decan-1-one], for which the pIC50 is 6.12.

Regarding `CC(C)CS(=O)(=O)N1CCC2(CCN(c3ccc(C(O)C(F)F)cc3)C2=O)CC1` (stereo not drawn) [Example 177, 2-(4-(2,2-difluoro-1-hydroxyethyl)phenyl)-8-(isobutylsulfonyl)-2,8-diazaspiro[4.5]decan-1-one], the negative-log IC50 (pIC50) was 6.35.

As to `CC(C)(C)CC(=O)N1CCC2(CC1)CCN(c1ccc(C(O)C(F)F)cc1)C2=O` (stereo not drawn) [Example 178, 2-(4-(2,2-difluoro-1-hydroxyethyl)phenyl)-8-(3,3-dimethylbutanoyl)-2,8-diazaspiro[4.5]decan-1-one], the pIC50 is 6.19.

In the case of `O=C1N(c2ccc(C(F)(F)F)cc2)CCC12CCN(S(=O)(=O)c1ccccc1Cl)CC2` [Example 179, 8-(2-Chloro-benzenesulfonyl)-2-(4-trifluoromethyl-phenyl)-2,8-diaza-spiro[4.5]decan-1-one], the pIC50 was 7.40.

For the compound `Cc1nn(C)c(C)c1S(=O)(=O)N1CCC2(CCN(c3ccc(OC(F)(F)F)cc3)C2=O)CC1` [Example 180, 2-(4-Trifluoromethoxy-phenyl)-8-(1,3,5-trimethyl-1H-pyrazole-4-sulfonyl)-2,8-diaza-spiro[4.5]decan-1-one], the pIC50 is 7.22.

For the compound `Cn1cnc(S(=O)(=O)N2CCC3(CCN(c4ccc(OC(F)(F)F)cc4)C3=O)CC2)c1` [Example 181, 8-(1-Methyl-1H-imidazole-4-sulfonyl)-2-(4-trifluoromethoxy-phenyl)-2,8-diaza-spiro[4.5]decan-1-one], the pIC50 was 6.59.

Regarding `O=C1N(c2ccc(OC(F)(F)F)cc2)CCC12CCN(S(=O)(=O)N1CCCC1)CC2` [Example 182, 8-(Pyrrolidine-1-sulfonyl)-2-(4-trifluoromethoxy-phenyl)-2,8-diaza-spiro[4.5]decan-1-one], the pIC50 is 7.05.

For `Cn1nccc1S(=O)(=O)N1CCC2(CCN(c3ccc(OC(F)(F)F)cc3)C2=O)CC1` [Example 183, 8-(2-Methyl-2H-pyrazole-3-sulfonyl)-2-(4-trifluoromethoxy-phenyl)-2,8-diaza-spiro[4.5]decan-1-one], the negative logarithm of the IC50 (pIC50) was 7.40.

Turning to `Cn1ccc(S(=O)(=O)N2CCC3(CCN(c4ccc(OC(F)(F)F)cc4)C3=O)CC2)n1` [Example 184, 8-(1-Methyl-1H-pyrazole-3-sulfonyl)-2-(4-trifluoromethoxy-phenyl)-2,8-diaza-spiro[4.5]decan-1-one], the pIC50 is 7.10.

In the case of `Cc1oncc1S(=O)(=O)N1CCC2(CCN(c3ccc(OC(F)(F)F)cc3)C2=O)CC1` [Example 185, 8-(5-Methyl-isoxazole-4-sulfonyl)-2-(4-trifluoromethoxy-phenyl)-2,8-diaza-spiro[4.5]decan-1-one], the pIC50 is 6.66.

Consider `Cc1noc(C)c1S(=O)(=O)N1CCC2(CCN(c3ccc(OC(F)(F)F)cc3)C2=O)CC1` [Example 186, 8-(3,5-Dimethyl-isoxazole-4-sulfonyl)-2-(4-trifluoromethoxy-phenyl)-2,8-diaza-spiro[4.5]decan-1-one], for which the pIC50 is 6.96.

Regarding `O=C1N(c2ccc(OC(F)(F)F)cc2)CCC12CCN(S(=O)(=O)c1cccnc1)CC2` [Example 187, 8-(Pyridine-3-sulfonyl)-2-(4-trifluoromethoxy-phenyl)-2,8-diaza-spiro[4.5]decan-1-one], the pIC50 was 7.52.

For the compound `O=C1N(c2ccc(OC(F)(F)F)cc2)CCC12CCN(S(=O)(=O)c1cccnc1Cl)CC2` [Example 188, 8-(2-Chloro-pyridine-3-sulfonyl)-2-(4-trifluoromethoxy-phenyl)-2,8-diaza-spiro[4.5]decan-1-one], the pIC50 was 7.70.

Turning to `CNc1ncccc1S(=O)(=O)N1CCC2(CCN(c3ccc(OC(F)(F)F)cc3)C2=O)CC1` [Example 189, 8-(2-Methylamino-pyridine-3-sulfonyl)-2-(4-trifluoromethoxy-phenyl)-2,8-diaza-spiro[4.5]decan-1-one], the pIC50 is 7.52.

Regarding `CN(C)c1ncccc1S(=O)(=O)N1CCC2(CCN(c3ccc(OC(F)(F)F)cc3)C2=O)CC1` [Example 190, 8-(2-Dimethylamino-pyridine-3-sulfonyl)-2-(4-trifluoromethoxy-phenyl)-2,8-diaza-spiro[4.5]decan-1-one], the pIC50 was 7.70.

On to `O=C1N(c2ccc(OC(F)(F)F)cc2)CCC12CCN(S(=O)(=O)c1cccnc1NC1CC1)CC2` [Example 191, 8-(2-Cyclopropylamino-pyridine-3-sulfonyl)-2-(4-trifluoromethoxy-phenyl)-2,8-diaza-spiro[4.5]decan-1-one], for which the negative logarithm of the IC50 (pIC50) is 7.10.

With `O=C1N(c2ccc(OC(F)(F)F)cc2)CCC12CCN(S(=O)(=O)c1cccnc1NCCO)CC2` [Example 192, 8-[2-(2-Hydroxy-ethylamino)-pyridine-3-sulfonyl]-2-(4-trifluoromethoxy-phenyl)-2,8-diaza-spiro[4.5]decan-1-one], the pIC50 is 7.40.

Regarding `CC(CO)Nc1ncccc1S(=O)(=O)N1CCC2(CCN(c3ccc(OC(F)(F)F)cc3)C2=O)CC1` (stereo not drawn) [Example 193, 8-[2-(2-Hydroxy-1-methyl-ethylamino)-pyridine-3-sulfonyl]-2-(4-trifluoromethoxy-phenyl)-2,8-diaza-spiro[4.5]decan-1-one], the pIC50 was 7.22.
